This is an account of results in patent US7157487B2, “Vla-4 inhibitors” (Daiichi Pharmaceutical Co., Ltd., priority 2000, dated 2007).

pKi: −log10 of the molar value.

In one data set the test system is VLA-4 expressed cells. Conditions: literature report; cited from earlier work.
Data set [1] can be described thus: Pharmacokinetics and oral bioavailability in rats. Type of data set: in vivo. The conditions noted are these: Rat, oral, plasma; for AUC: LC/MS/MS; for bioavailability: read-out: F (%) oral bioavailability; for clearance: read-out: CLtot (mL/min/kg) apparent plasma clearance. From the text:
(§1) The pharmacokinetic parameter of the test compound orally administered to rats or dogs are described below.

The target of data set [2] is T1, integrins haα4 and β1 (VLA-4) expressed on CHO cells (Homo sapiens, UniProt P05556+P13612).
T1 construct: expressed in transfected cells; host or cells: CHO cells
T1 sequence (P13612 34-1032): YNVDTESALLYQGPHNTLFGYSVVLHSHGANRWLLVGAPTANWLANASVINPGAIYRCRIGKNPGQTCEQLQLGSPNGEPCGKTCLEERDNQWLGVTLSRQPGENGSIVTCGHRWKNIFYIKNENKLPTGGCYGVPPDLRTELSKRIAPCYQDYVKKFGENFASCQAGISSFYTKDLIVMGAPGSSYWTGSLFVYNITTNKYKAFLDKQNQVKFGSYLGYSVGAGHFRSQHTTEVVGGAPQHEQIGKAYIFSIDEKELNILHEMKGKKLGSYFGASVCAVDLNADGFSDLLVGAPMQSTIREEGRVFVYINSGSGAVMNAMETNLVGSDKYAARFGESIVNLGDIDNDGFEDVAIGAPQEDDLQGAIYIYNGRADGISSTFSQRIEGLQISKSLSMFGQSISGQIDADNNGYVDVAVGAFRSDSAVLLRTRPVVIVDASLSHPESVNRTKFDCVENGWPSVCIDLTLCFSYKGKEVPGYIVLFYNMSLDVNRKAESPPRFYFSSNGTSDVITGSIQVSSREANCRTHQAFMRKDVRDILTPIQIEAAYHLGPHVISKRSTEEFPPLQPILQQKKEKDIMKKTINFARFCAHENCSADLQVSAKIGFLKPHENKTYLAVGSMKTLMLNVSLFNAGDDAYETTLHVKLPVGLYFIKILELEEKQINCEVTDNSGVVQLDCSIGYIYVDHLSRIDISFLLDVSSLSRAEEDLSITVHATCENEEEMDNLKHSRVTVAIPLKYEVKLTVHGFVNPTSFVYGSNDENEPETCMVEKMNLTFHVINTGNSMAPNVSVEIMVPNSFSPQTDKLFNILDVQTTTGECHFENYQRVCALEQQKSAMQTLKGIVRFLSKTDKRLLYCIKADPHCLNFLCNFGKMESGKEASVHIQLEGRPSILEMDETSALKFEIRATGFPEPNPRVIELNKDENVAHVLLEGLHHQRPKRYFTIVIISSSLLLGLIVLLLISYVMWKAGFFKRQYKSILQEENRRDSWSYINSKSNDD
T1 sequence (P05556 21-798): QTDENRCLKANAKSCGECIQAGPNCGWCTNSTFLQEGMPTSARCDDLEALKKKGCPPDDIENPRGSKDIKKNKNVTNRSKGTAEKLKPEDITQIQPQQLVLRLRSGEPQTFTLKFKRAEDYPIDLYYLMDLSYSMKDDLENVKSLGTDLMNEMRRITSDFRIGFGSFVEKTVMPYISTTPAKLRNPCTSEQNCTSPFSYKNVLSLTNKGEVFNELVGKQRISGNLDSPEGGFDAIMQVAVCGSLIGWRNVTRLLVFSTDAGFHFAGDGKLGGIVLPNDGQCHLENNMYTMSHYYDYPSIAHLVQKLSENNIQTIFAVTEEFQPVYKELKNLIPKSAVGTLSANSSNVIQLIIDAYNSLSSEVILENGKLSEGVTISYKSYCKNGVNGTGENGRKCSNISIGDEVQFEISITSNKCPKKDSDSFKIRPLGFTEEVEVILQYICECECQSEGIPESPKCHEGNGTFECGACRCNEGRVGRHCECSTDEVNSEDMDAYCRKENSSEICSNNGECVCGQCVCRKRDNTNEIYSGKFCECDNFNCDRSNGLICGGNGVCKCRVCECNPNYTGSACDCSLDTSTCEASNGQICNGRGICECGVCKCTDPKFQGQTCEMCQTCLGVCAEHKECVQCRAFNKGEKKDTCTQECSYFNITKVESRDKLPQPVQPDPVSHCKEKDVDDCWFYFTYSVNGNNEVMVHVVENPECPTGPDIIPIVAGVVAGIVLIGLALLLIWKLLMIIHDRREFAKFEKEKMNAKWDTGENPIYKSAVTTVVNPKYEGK
The data set is described as follows: In vitro Evaluation Test (1): binding of Eu3+-hVCAM-1 D1D7-IgG to CHO cells expressing integrins α4 and β1. The conditions noted are these: inhibition of Eu3+-hVCAM-1 D1D7-IgG binding to CHO cells expressing α4β1; Ki calculated from IC50. In short, it runs like this:
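CHO cells transduced with human α4 and β1 were grown for 2 days. They were incubated 1 h at room temperature with Eu3+-hVCAM-1 D1D7-IgG (diluted to 2 nM before addition) and compound, with or without 6% HSA, in HEPES pH 7.5 containing Ca2+, Mg2+ and 4 mM Mn2+. Time-resolved fluorescence gave IC50; Ki used a Scatchard-derived Kd (0.06–20 nM).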

The nature of data set [3]: Pharmacokinetics and oral bioavailability in dogs. Conditions: 2 /kg, Dog, oral, Dose/kg 2.0, plasma; for AUC: LC/MS/MS; for bioavailability: read-out: F (%) oral bioavailability; for clearance: read-out: CLtot (mL/min/kg) apparent plasma clearance. The data set is classed as in vivo.
Description: as §1

For the next data set, the target named is VLA-4 (Homo sapiens, UniProt P05556+P13612). The conditions noted are these: in vitro, literature report; cited from earlier work.
Chain of VLA-4 (P13612 34-1032): as the sequence (P13612 34-1032) above
Chain of VLA-4 (P05556 21-798): as the sequence (P05556 21-798) above
The test system of data set [4] is cardiac transplantation of rabbits. The conditions noted are these: literature report; cited from earlier work.
The nature of data set [5]: Evaluation of oral bioavailability by mouse bioassay. Type of data set: in vivo. Conditions: 10 mg/kg oral, female Balb/C mice, serum 15 minutes after administration, read-out: Blood level. In short, it runs like this: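 Female Balb/C mice aged 7–9 weeks received 10 mg/kg compound orally as a 1 mg/ml suspension or solution. Compound level was estimated either from a calibration curve using VCAM-1/VLA-4 inhibitory activity or by LC/MS/MS.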

With CQIDSPC, the “inhibition of adhesion of VLA-4 expressed cells to purified VCAM-1” value in the data set with VLA-4 expressed cells is listed as “succeeded in inhibiting adhesion”.
Regarding `Cc1ccccc1Nc1nc2ccc(CC(=O)N3C[C@@H](F)C[C@H]3COC3CCC(C(=O)O)CC3)cc2o1` (single isomer, unassigned) [21 (Isomer H)], in data set [1] (5 /kg, Dose/kg 5.0), the AUC was 14900 ng·h/mL, the bioavailability is 52% and the clearance was 3.3 mL/min/kg. Also, in data set [2], the pKi is 8.60. In addition, in data set [3], the AUC came to 760 ng·h/mL, the bioavailability stood at 40% and the clearance worked out at 17.9 mL/min/kg.
With “phenylacetic acid-Leu-Asp-Phe-d-Pro-amide [synthetic CS-1 tetrapeptide]”, on VLA-4, the “inhibition of leukocyte adhesion mediated by VLA-4” value is on record as “in vitro inhibition”. In addition, the “advance of coronary arterial diseases” value in data set [4] is “amelioration of advance of coronary arterial diseases”.
Regarding `CO[C@H]1C[C@@H](CO[C@H]2CC[C@H](C(=O)O)CC2)N(C(=O)Cc2cc(Cl)c(NC(=O)c3nn(C)c4ccccc34)cc2F)C1` [Example 121, trans-4-(1-((5-Chloro-2-fluoro-4-(1-methyl-3-indazolylcarbonylamino)phenyl)acetyl)-(4S)-methoxy-(2S)-pyrrolidinylmethoxy)cyclohexanecarboxylic acid], the negative logarithm of the Ki (pKi) in data set [2] was 8.41. The concentration at 15 min in data set [5] came out at 4410 ng/mL.
For the molecule `CC(C)[C@H]1CC[C@@H](CO[C@H]2CC[C@H](C(=O)O)CC2)N1C(=O)Cc1cc(Cl)c(NC(=O)c2cn(C)c3ccccc23)cc1F` [Example 173, trans-4-(1-((5-Chloro-2-fluoro-4-((1-methyl-3-indolylcarbonyl)amino)phenyl)acetyl)-(5R)-isopropyl-(2S)-pyrrolidinylmethoxy)cyclohexanecarboxylic acid], the pKi in data set [2] is 8.00. Also, the concentration at 15 min in data set [5] came to 3470 ng/mL.
Regarding `CO[C@H]1C[C@@H](COC2CCC(C(=O)O)CC2)N(C(=O)Cc2ccc3nc(Nc4ccccc4C)oc3c2)C1` (single isomer, unassigned) [20 (Isomer A)], in data set [1] (2 /kg, Dose/kg 2.0), the AUC came to 152 ng·h/mL, the bioavailability worked out at 35% and the clearance came to 73 mL/min/kg. In data set [3], the AUC came to 776 ng·h/mL, the bioavailability came to 44% and the clearance came to 19.1 mL/min/kg.
As for `COC[C@H]1CC[C@@H](CO[C@H]2CC[C@@H](C(=O)O)CC2)N1C(=O)Cc1ccc2nc(Nc3cc(F)ccc3C)oc2c1F` [Example 165, trans-4-(1-((2-(5-Fluoro-2-methylphenylamino)-7-fluoro-6-benzoxazolyl)acetyl)-(5R)-methoxymethyl-(2S)-pyrrolidinylmethoxy)cyclohexanecarboxylic acid], in data set [2], the pKi was 8.54. Moreover, the concentration at 15 min in data set [5] was found to be 816 ng/mL.
Taken in the same sequence, the figures for `COC[C@H]1CC[C@@H](CO[C@H]2CC[C@H](C(=O)O)CC2)N1C(=O)Cc1cc(Cl)c(NC(=O)c2nn(C)c3ccccc23)cc1F` [Example 166, trans-4-(1-((5-Chloro-2-fluoro-4-((1-methyl-3-indazolylcarbonyl)amino)phenyl)acetyl)-(5R)-methoxymethyl-(2S)-pyrrolidinylmethoxy)cyclohexanecarboxylic acid] were 8.10 and 3070 ng/mL.
Turning to `Cn1nc(C(=O)Nc2ccc(CC(=O)N3C[C@@H](F)C[C@H]3CO[C@H]3CC[C@H](C(=O)O)CC3)cc2Cl)c2ccccc21` [Example 89, trans-4-(1-((3-Chloro-4-((1-methyl-3-indazolylcarbonyl)amino)phenyl)acetyl)-(4S)-fluoro-(2S)-pyrrolidinylmethoxy)cyclohexanecarboxylic acid], the pKi in data set [2] is 8.44. In data set [5], the concentration at 15 min turned out to be 10900 ng/mL.
`O=C(Nc1cc(F)c(CC(=O)N2C[C@@H](F)C[C@H]2CO[C@H]2CC[C@H](C(=O)O)CC2)cc1Cl)N1CCc2ccccc21` [Example 91, trans-4-(1-(5-Chloro-2-fluoro-4-(1-(indolinyl)carbonylamino)phenylacetyl)-(4S)-fluoro-(2S)-pyrrolidinylmethoxy)cyclohexanecarboxylic acid]: the pKi in data set [2] is 8.70. The concentration at 15 min in data set [5] amounted to 2960 ng/mL.
The like results for `O=C(Nc1ccc(CC(=O)N2C[C@@H](F)C[C@H]2CO[C@H]2CC[C@H](C(=O)O)CC2)cc1Br)c1nccc2ccccc12` [Example 79, trans-4-(1-((3-Bromo-4-((1-isoquinolinylcarbonyl)amino)phenyl)acetyl)-(4S)-fluoro-(2S)-pyrrolidinylmethoxy)cyclohexanecarboxylic acid] were, in that order, 8.35 and 9370 ng/mL.

By AUC is commonly meant the area under the concentration-time curve, a measure of exposure. Higher therefore signals more exposure. For orientation: bioavailability means dose-corrected exposure relative to a reference, in per cent. By pKi is commonly meant −log10 of the Ki, conventionally taken in molar units.
